The record followed here is PMC10671074, “Tumor Regression upon Intratumoral and Subcutaneous Dosing of the STING Agonist ALG-031048 in Mouse Efficacy Models” (International Journal of Molecular Sciences, 2023).

Data set [1] has as its system primary human immature dendritic cells. Nature of the data set: Activation of primary human immature dendritic cells (CD83/CD86 flow cytometry). In kind it is cell-based. As to conditions: for EC50: Homo sapiens, Dendritic cell, iDCs, 72 h after stimulation. The text has this:
Frozen human PBMCs (100 × 10^6 cells) were obtained from Stem Cell Technologies (Kent, WA, USA). Monocytes were purified from PBMCs using a CD14^+ pan-monocyte-negative isolation kit and an LS column (Miltenyi Biotec, Bergisch Gladbach, Germany). Magnetically labeled non-target cells were depleted by retaining them within a MACS column in the magnetic field of a MACS Separator, while highly purified unlabeled CD1 D16^− cells were collected and used to generate dendritic cells. To obtain immature monocyte-derived dendritic cells (iMDDCs), enriched monocytes were cultured in Mo-DC differentiation medium (Miltenyi Biotec) supplemented with human IL-4 (250 IU/mL, Miltenyi Biotec) and human GM-CSF (800 IU/mL, Miltenyi Biotec) at 37 °C in a T-150 flask in a 5% CO2 humidified incubator for 5 days; fresh media was replenished every 2–3 days.
[…] An aliquot of iMDDCs was also cultured in maturation media for 24–48 h and used as a control containing RPMI 1640, 10% FBS, 2 mM L-glutamine, and human TNF-α (6000 IU/mL, Miltenyi Biotec). The supernatant from the plate was frozen to assess cytokine production, and cells were analyzed via flow cytometry.
Cells were incubated with phosphate-buffered saline (PBS) containing 2% FBS and 2 mM of EDTA (FACS buffer) supplemented with 2 mg/mL of normal human IgG on ice for 15 min to block Fc receptors. The cell suspension was then incubated with a predetermined optimal concentration of the appropriate fluorescent dye-labeled monoclonal antibodies (mAbs) against human cell surface markers on ice for 30 min. The fluorescent dye-labeled mAbs against human cell surface molecules included anti-CD209, anti-CD14, anti-CD11c, anti-CD40, anti-HLA-DR, anti-CD86, and anti-CD83 (BD Biosciences, Franklin Lakes, NJ, USA or BioLegend, San Diego, CA, USA). In addition, a fixable live/dead stain (Thermo Fisher Scientific) at a dilution of 1:1000 was added to exclude dead cells. After several washes with FACS buffer, cells were resuspended in FACS buffer and analyzed on an Attune Nxt flow cytometer (Thermo Fisher Scientific) with FlowJo v10 software (BD Biosciences). An aliquot of the cells to be analyzed served as controls by using “fluorescent minus-one” to establish gates and determine the frequency of positively stained cells. Ultra-comp beads (Thermo Fisher Scientific) were used as single-stained controls to set up compensation on the flow cytometer.

For data set [2], the system named is plasma cytokines. Nature of the data set: Plasma cytokine analysis in CT26-tumor-bearing mice. In kind it is in vivo, mouse. The note with it: CT26-bearing BALB/c, one IT dose of 100 μg, 4 h after dosing. The procedure:
Plasma levels of IFN-α, IFN-β, IL-2, TNF-α, IL-6, IL-12, IP-10, IFN-γ, and MCP-1 (in pg/mL) were measured using the ProcartaPlex 9-Plex (ThermoFisher Scientific) according to the manufacturer’s instructions. Data were processed using Milliplex Analyst software version 5.1 on a MAGPIX instrument (Luminex Corp., Austin, TX, USA).
Figure S5. Plasma cytokine levels in female BALB/c mice bearing SC CT26 tumors receiving one IT dose of 100 μg ADU‐S100 or ALG‐031048, at a mean TV of 116 mm3. Cytokine concentrations were analyzed 4 hours after dos ing. Only statistically significant differences (unpaired, parametric t test) are indicated by brackets.
(also on this page, place not known: pg/ml pg/ml pg/ml pg/ml pg/ml pg/ml pg/ml pg/ml pg/ml dosing.) […]
1 mg 4 mg Saline 25 g/kg S /kg SC
Figure S8. Cytokine induction in CT26 tumor‐bearing mice upon SC administration of ALG‐031048.
10 mice per group were treated with 3 doses 3 days apart. Plasma samples were collected 6 hours […]

Data set [3] has as its system Hepa1–6 tumors. Nature of the data set: Hepa1–6 mouse hepatocellular carcinoma model. It is filed as in vivo. The procedure: The animals were fed ad libitum water (0.2-μm filtered, reverse osmosis, autoclaved), and standard irradiated rodent chow. The mice were housed on autoclaved, crushed corncob bedding, which was changed weekly, on a 12 h light cycle at 20–26 °C and 40–70% humidity.
The Hepa1–6 tumor cells were maintained in vitro in DMEM supplemented with 10% FBS at 37 °C in an atmosphere of 5% CO2 in air. Cells in the exponential growth phase were harvested and quantitated using a cell counter, adjusted to 5 × 10^7/mL in PBS before tumor inoculation.
Each mouse was inoculated subcutaneously in the right front flank region with Hepa1–6 tumor cells (5 × 10^6) in 0.1 mL PBS for tumor development. After tumor cell inoculation, the animals were checked daily for morbidity and mortality and for any effects of tumor growth or test articles on behavior such as mobility, food and water consumption, eye/hair matting, and any other abnormalities. Dosing started when the average tumor volume reached 98 mm^3. The anti-PD-1 antibody was dosed IP at 10 mg/kg twice per week (BIW), while ALG-031048 was dosed IT at 25 and 100 μg/animal on Days 1, 5, and 9. Tumor volumes were measured […], as described above.
Figure S6. A: Tumor regression in Hepa1‐6 tumor‐bearing […] mice upon IT treatment with three doses of 25 μg (light blue) or 100 μ g ALG‐031048 (dark blue), in comparison to treatment with 10 mg/kg anti‐PD‐1 antibody twice per week, 6 doses total (red). Vehicle‐treated animals are shown in black; shown are the mean tumor volumes ± standard deviation for each group of 10 animals.
Irregular, crater‐shaped tumors prevented accurate tumor volume measurement between Days 8‐
25. Treatment started when tumors reached an average volume of 98 mm3. Statistical analysis pro‐ vided in Table S4. B: Tumor weight for each group at the end of the study. Statistical analysis pro‐ vided in Table S5. C: Plasma cytokine levels 6 hours after the first dose. Each symbol represents one animal as well as the mean of the group (n=10). Unpaired t‐test was used to compare different groups: all groups for al l cytokines were statistically significant from each other with P‐values of < 0.0001 with the following exceptions: vehicle vs anti‐PD‐1 were non‐significant (all cytokines); the […]

For data set [4], the system named is CT26 tumors. Nature of the data set: Re-challenge with CT26 of mice with complete tumor regression. In kind it is in vivo, mouse. The procedure: Ten naïve, age-matched female BALB/c mice were used as controls. […] Tumor growth was measured as described above.
For data set [5], the system named is subcutaneous CT26 tumors. Nature of the data set: CT26 mouse colon carcinoma model.
Experimental: Each mouse was inoculated subcutaneously in the right flank with 3 × 10^5 CT26 cells (in 0.1 mL PBS) for tumor development.
PBS was used as the vehicle control. […] Vehicles and test compounds were administered IT q3d × 3 in a volume of 0.05 mL. SC administration was performed between the shoulder blades at a dosing volume of 10 mL/kg. Tumors were measured twice a week in two dimensions using calipers, and volume was calculated using Formula (1):Tumor Volume (mm^3) = 0.5 (w^2 × l)(1)
Here, w = width and l = length, in mm, of a tumor.
Tumor weight was estimated with the assumption that 1 mg is equivalent to 1 mm^3 of tumor volume.
Animals were euthanized when (1) their tumor reached the endpoint volume of 2000 mm^3, (2) their body weight loss exceeded 30%, or (3) on the last day of the study, whichever came first. The TTE for analysis was calculated for each mouse by the following Equation (2):TTE = (log10 (endpoint volume) − b)/m(2)
TTE is expressed in days, endpoint volume is expressed in mm^3, b is the intercept, and m is the slope of the line obtained via linear regression of a log-transformed tumor growth data set. […] Animals were weighed on Days 1–5, then twice weekly for the duration of the study.
Data set [6] has as its system HEK 293 reporter cells. Nature of the data set: Cell viability of HEK 293 reporter cells (CellTiter-Glo). The note with it: concentrations up to 1000 nM.
Experimental: Assays were set up after allowing cells to adhere for 48 h. Compounds dissolved in water were serially diluted in dosing buffer containing 10 µg/mL of digitonin (MP Biomedicals, Solon, OH, USA). Media were aspirated from the cells, and 50 µL of buffer with compound was added in triplicate. […] The next day, 20 µL of media was transferred to two new plates, and either 50 µL of QuantiLuc™ (Invivogen) to measure IFN-β expression or 80 µL of QuantiBlue™ (Invivogen) to measure IRF activity were added. […] An aliquot of 100 µL of CellTiter-Glo® (Promega, Madison, WI, USA) was added to the original plate still containing the cells, and luminescence was determined to measure viability. All readouts were measured on an Envision plate reader from Perkin Elmer. Data were analyzed using GraphPad™ Prism’s version 8.0 [Agonist] vs. response—variable slope (four parameters) model.
with increasing concentrations of the STING agonists or IFN‐β. After 24 hours, IRF reporter activity

Each structure is given as a SMILES string. Read-outs that look alike come from different tables or passages of the source.

With `CO[C@H]1[C@H]2OP(=O)(O)OC[C@@]34C[C@@H]3[C@@H](n3cnc5c(N)ncnc53)[C@H](O)[C@@H]4O[P@](=O)(S)OC[C@H]1O[C@H]2n1cnc2c(=O)[nH]c(N)nc21` [ALG-031048], the EC50 in data set [1] (read-out: EC50 CD83, Immature Dendritic Cells) turned out to be 5.3 µM; in data set [1] (read-out: EC50 CD86, Immature Dendritic Cells), 17.8 µM. In addition, the “Surface expression of CD86 and CD83 (in words)” value in data set [1] (iDCs and, to a lesser degree, monocytes, 24 and 72 h) is “upregulated the surface expression of CD86 and CD83”. Besides, the “Plasma cytokines after IT dosing” value in data set [2] is “increased cytokines such as IFN-α and -β, TNF-α, interleukin 6 (IL-6), MCP-1, and IP-10”. The “Tumor weight at end of study” value in data set [3] (Hepa1–6, IT 25 and 100 μg) is given as “reduction in tumor weight”. Moreover, the “Tumor reduction at end of study” value in data set [3] (Hepa1–6, three IT doses of 25 μg (Days 1, 5, 9)) is on record as 12%. The “Mean tumor reduction at end of study” value in data set [3] (Hepa1–6, three IT doses of 100 μg (Days 1, 5, 9)) was determined as 88%. In addition, in data set [3] (Hepa1–6 model), the “Complete tumor regression, animals” value is on record as 100%. Also, the “Animals with complete tumor suppression (TV < 10 mm^3) after CT26 re-challenge” value in data set [4] (Figure 5C, previously 100 μg IT × 3, CT26 left flank, 25 days, no further treatment) is “six”. Besides, the “TV at last measurement of animals with delayed tumor growth after CT26 re-challenge” value in data set [4] (Figure 5C, three animals) was 40–221 mm^3. Also, the “TV at end of study of remaining re-challenged animal” value in data set [4] (complete responders to 100 μg IT 3 × q3d, CT26 re-challenge) came out at 864 mm^3. Further, in data set [4] (complete responders to 100 μg IT 3 × q3d, re-challenged on opposite flank, 40 days without additional treatment), the “Animals with tumor growth suppressed after CT26 re-challenge” value is on record as 8 of 9. In data set [5] (CT26, 4 mg/kg SC, 3 × q3d), the “Animals with complete response (TV < 10 mm^3) at end of study” value is given as “one”. Besides, the “Animals with tumors regressed and undetectable at end of study” value in data set [5] (Table 2 study, 100 μg IT, three doses) is on record as 9 of 10. Further, the “Cell viability of HEK 293 reporter cells” value in data set [6] is “did not cause any loss of cell viability”.
